The results in this text go back to paper PMC12775124, “CUL4A-DDB1-DCAF10 is an N-recognin for N-terminally acetylated Src kinases” (Nature Communications, 2026).

For assay [1], the system named is CUL4A-DDB1-DCAF10. Briefly: In vitro ubiquitination of Lyn-GFP variants by CUL4A-DDB1-DCAF10. In kind it is biochemical, human. The following applies: for Increase of in vitro ubiquitination under NMT1/2 siRNA: WT E3 complex, IP from NMT1/2 siRNA vs control DLD-1 cells. An excerpt:
Lyn^WT-GFP was ubiquitinated by the WT E3 complex in both conditions; however, unlike in vitro ubiquitination with endogenous Lyn (Fig. 5c, d), ubiquitination increased ~6-fold under NMT1/2 siRNA conditions. This is consistent with DCAF10 being limiting and overexpressed Lyn-GFP, accumulating an acetylated fraction available for DCAF10 in vitro. Then, we performed IPs for all Nt variants under NMT1/2 siRNA conditions (Fig. 6d, h–i). […] In vitro ubiquitination assays using untreated cell lysates led to similar results (Supplementary Fig. 7h, i).
Reactions contained E1, UBCH5B (E2), ubiquitin, Mg-ATP in ligation buffer and were incubated with bead-bound substrates, followed by washing and immunoblot detection of ubiquitinated species (anti-ubiquitin), with loading controls (anti-Lyn, -Fyn, -Src or -GFP) (n = 3 independent enzymatic assays). Complete reagent lists, complex preparation, substrate IP conditions, wash buffers, and gel/blot parameters are provided in the Supplementary Methods and Tables.
357 (v/v) glycerol, 2 mM TCEP, supplemented with Protease Inhibitor Cocktail), and lysed
358 by sonication. Lysates were cleared by centrifugation at 28,000 rpm for 45 min at 4 °C
359 using a JA-30.50 rotor (Beckman Coulter, Brea, CA, USA). The cleared and filtered (0.8
360 µm) lysate was applied to 1 mL of Strep-Tactin®XT 4Flow® resin (iba), pre-equilibrated
361 once with wash buffer (100 mM Tris-HCl pH 8.0, 150 mM NaCl, 1 mM EDTA) and lysis
362 buffer. The lysate was incubated on a tube roller for 16 h at 4 °C. After incubation, beads
363 were washed with 50 mL of lysis buffer. Bound proteins were eluted with 10 mL of lysis
364 buffer supplemented with 50 mM biotin, after 15 min incubation on a tube roller at 4 °C.
366 Superdex 200 10/300 or 16/60 SEC column (GE Healthcare, Chicago, IL, USA),
367 preequilibrated in SEC buffer (250 mM Tris pH 7.5, 250 mM NaCl, 10% (v/v) glycerol,
370 Purified proteins were visualized during and after the purification by SDS-gels containing
371 TCE (2,2,2-trichloroethanol)62. The identity of proteins was confirmed by WB and MS.
373 In vitro ubiquitination assays
374 The in vitro ubiquitination assays were performed as previously described8. In brief,
375 E1 (50 nM), UBCH5B (250 nM), ubiquitin (1.5 µg), Mg-ATP (3 mM), ligation buffer,
376 and water were pre-mixed. The premix was divided, and either CUL4A-RBX1-
378 RBX1DDB1 (-DCAF10) (250 nM each) was added. 15 μL of each premix were incubated
379 with substrates (endogenous Lyn or Lyn-GFP constructs) bound to beads for 1 h at 30°C
380 with shaking. Samples were then washed four to five times with a buffer containing 50 […]
382 EDTA, and loaded on a gradient gel (4–15%). Ubiquitination of substrates was assessed
383 by WB using an anti-ubiquitin antibody. Equal substrate loading was evaluated by anti- […]

In assay [2] the test system is DCAF10. As to the kind of experiment: Anti-GFP immunoprecipitation of Lyn-GFP with MS, DCAF10. The format is binding, human. The following applies: anti-GFP IP, NMT1/2 siRNA and control.
Description: 494 induction using GFP-Trap magnetic agarose beads. Briefly, 10 µL of bead slurry per
495 reaction was equilibrated three times with ice-cold lysis buffer (75 mM HEPES pH 7.5,
497 supplemented with 1mM DTT, PhosSTOP, and Protease Inhibitor Cocktail). Then, 500
498 µL of each lysate sample (control, dox induction, and NMT1/2 knockdown with or
499 without dox induction) containing approximately 300 µg total protein, were added to
500 tubes containing the equilibrated beads. Samples were rotated end-over-end for 1.5–2 h
After incubation, the beads were washed twice with 500 µL of cold lysis buffer
502 and twice with 500 µL of cold lysis buffer lacking NP-40, glycerol, DTT, phosSTOP, and
503 Protease Inhibitor Cocktail. Finally, the immunoprecipitates were resuspended in 50 µL
504 of 8 M urea, incubated at 25°C for 30 min, and stored at -20°C prior to on-bead digestion
Each experimental condition was performed in
526 Mass spectrometry measurements and raw file processing
527 Samples (peptide pull-downs, IPs and high-pH fractionations) were separated on an
528 EASY-nLC 1200 HPLC system (Thermo Fisher Scientific, Waltham, MA, USA) using
529 in-house-packed 50-cm reversed-phase columns (75 cm diameter, 1.9 mm C18 ReproSil
530 particles, Dr. Maisch GmbH) (60°C at 300 nL/min flow rate with an 83 min gradient from […]
536 sec cycle time) (data points per peak = 6). Cycle times were calculated based on the […]

For the substance “Lyn^WT-GFP: doxycycline-inducible C-terminally GFP-fused Lyn in DLD-1 Lyn KO cells”, in assay [1] (Lyn-GFP variants, NMT1/2 siRNA), the “In vitro ubiquitination (in words)” value is “robustly ubiquitinated by the WT E3 complex”. Also, the “Increase of in vitro ubiquitination under NMT1/2 siRNA” value in assay [1] was ~ 6 fold; in assay [1] (listed as LynWT–GFP), more than 5 fold. For the same substance, the “Interaction with DCAF10 (in words)” value in assay [2] was “significantly interacted with DCAF10 under both NMT1/2 siRNA and control conditions, with significant enrichment upon NMT1/2 KD”.
